Experimental data from US11987572B2, “Therapeutic compounds and methods of use thereof” (REGENTS OF THE UNIVERSITY OF MINNESOTA, priority 2019, dated 2024).

These compounds were tested against T1, p38α (Homo sapiens, UniProt Q16539) (assay: p38 competitive inhibition assay (KINOMEscan, Eurofins DiscoverX)). Settings: mean of two biological replicates.
T1 construct: phage display fusion; purchased Eurofins DiscoverX (Fremont California), KINOMEscan service
Format: binding

T1 sequence (Q16539 whole entry, the tested form may be a part): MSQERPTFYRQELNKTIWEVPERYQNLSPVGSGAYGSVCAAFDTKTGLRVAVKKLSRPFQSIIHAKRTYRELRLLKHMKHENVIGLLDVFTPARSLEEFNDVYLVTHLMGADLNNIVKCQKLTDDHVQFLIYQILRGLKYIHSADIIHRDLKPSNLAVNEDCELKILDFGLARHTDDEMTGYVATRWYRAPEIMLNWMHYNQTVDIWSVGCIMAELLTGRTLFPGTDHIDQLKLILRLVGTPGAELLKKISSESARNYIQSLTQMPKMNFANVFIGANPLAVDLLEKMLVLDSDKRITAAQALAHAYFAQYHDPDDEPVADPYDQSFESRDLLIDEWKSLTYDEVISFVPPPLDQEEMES

Row | SMILES | Kd [µM]
1 | Cc1cc(C)cc(Nc2cccc(-c3c(C)nnn3C3CCNCC3)n2)c1 | > 0.025
2 | Cc1cc(C)cc(Oc2cccc(-c3c(-c4ccc(C(F)(F)F)cc4)ncn3C3CCN(CCN)CC3)n2)c1 | > 30
3 | Cc1cc(C)cc(Nc2nccc(-c3c(-c4ccc(F)cc4)nnn3C3CCNCC3)n2)c1 | 0.12 ± 0.051

The compounds below were run against T2, His9-BRD4 D1 (Homo sapiens, UniProt O60885) (assay: AlphaScreen assay with His9-BRD4 D1). Settings: mean of two technical replicates.
T2 construct: 7.5-60 nM for His9-tagged BRD4 D1; made in house; host or cells: E. coli BL21(DE3) with pRARE
Format: binding

Row | SMILES | IC50 [µM]
4 | Cc1cc(Oc2cccc(-c3c(C)nnn3C3CCNCC3)n2)cc(C(C)C)c1 [drawing 251] | 4.76
5 | Cc1ccc(-c2ncn(C3CCNCC3)c2-c2ccnc(Nc3cc(C)cc(C)c3)n2)cc1 | 1.1
6 | CC(=O)NCCN1CCC(n2cnc(-c3ccc(C(F)(F)F)cc3)c2-c2ccnc(Nc3cc(C)cc(C)c3)n2)CC1 | 1.5
7 | Cc1cc(C)cc(Nc2nccc(-c3c(-c4ccccc4)ncn3C3CCNCC3)n2)c1 | 2.6
8 | Cc1cc(C)cc(Nc2nccc(-c3c(CO)nnn3C3CCNCC3)n2)c1 | 160
9 | Cc1nnn(C2CCNCC2)c1-c1cccc(Oc2cc(C(F)(F)F)cc(C(F)(F)F)c2)n1 [drawing 263] | 45.6
10 | Cc1cc(C)cc(Nc2nccc(-c3c(-c4ccc(Cl)cc4)ncn3C3CCN(C(=N)N)CC3)n2)c1 | 1.4
11 | Cc1cc(C)cc(Nc2nccc(-c3c(-c4ccc(C(F)(F)F)cc4)ncn3C3CCN(CCN(C)C)CC3)n2)c1 | 0.2
12 | Cc1cc(C)cc(Oc2cccc(-c3c(-c4ccc(C(F)(F)F)cc4)ncn3C3CCN(CCN)CC3)n2)c1 | 1.3
13 | CCCCc1cc(CCCC)cc(Oc2cccc(-c3c(C)nnn3C3CCNCC3)n2)c1 [drawing 259] | 27.7
14 | CCC(C)c1cc(C)cc(Oc2cccc(-c3c(C)nnn3C3CCNCC3)n2)c1 (centres unmarked) [drawing 252] | 7.35

Each compound was assayed against T3, BRD4-D1 (Homo sapiens, UniProt O60885) (assay: Fluorescence anisotropy competition with Fl-JQ1). Settings: mean and SEM of three biological replicates, read-out: BRD4 D1 IC50 by FA.
T3 construct: His6 BRD4 D1 were expressed and purified as reported by A. K. Urick; His6; made in house
Format: binding

Row | SMILES | IC50 [µM]
15 | Cc1cc(C)cc(Nc2cccc(-c3c(C)nnn3C3CCN(C(=N)N)CC3)n2)c1 | 4.5 ± 0.35
16 | Cc1ccc(-c2ncn(C3CCNCC3)c2-c2ccnc(Nc3cc(C)cc(C)c3)n2)cc1 | 1.2 ± 0.2
17 | CC(=O)NCCN1CCC(n2cnc(-c3ccc(C(F)(F)F)cc3)c2-c2ccnc(Nc3cc(C)cc(C)c3)n2)CC1 | 0.42 ± 0.01
18 | Cc1cc(C)cc(Nc2nccc(-c3c(-c4ccccc4)ncn3C3CCNCC3)n2)c1 | 4.5 ± 0.2
19 | Fc1ccc(-c2ncn(C3CCNCC3)c2-c2ccnc(Oc3cc(F)cc(F)c3)n2)cc1 | > 250
20 | Cc1cc(C)cc(Oc2ccnc(-c3c(C)nnn3C3CCNCC3)c2)c1 | > 100
21 | Cc1cc(C)cc(Oc2nccc(-c3c(C(C)C)nnn3C3CCNCC3)n2)c1 | > 100
22 | Cc1cc(C)cc(Nc2cccc(-c3c(C)nnn3C3CCNCC3)n2)c1 | 4.5 ± 0.35
23 | Cc1cc(C)cc(Nc2nccc(-c3c(-c4ccc(Cl)cc4)ncn3C3CCN(C(=N)N)CC3)n2)c1 | 1.6
24 | Cc1cc(C)cc(Oc2nccc(-c3c(C)nnn3C3CCN(C(=N)N)CC3)n2)c1 [drawing 222] | 9.7 ± 1.8
25 | Cc1ccc(Nc2nccc(-c3c(-c4ccc(F)cc4)ncn3C3CCNCC3)n2)cc1C | 1.3 ± 0.2
26 | Cc1cc(C)cc(Oc2cc(-c3c(C)nnn3C3CCN(C(=N)N)CC3)ccn2)c1 [drawing 225] | 97 ± 2.6
27 | Cc1cc(C)cc(Nc2nccc(-c3c(-c4ccc(C(F)(F)F)cc4)ncn3C3CCN(CCN(C)C)CC3)n2)c1 | 0.15 ± 0.03
28 | Cc1cc(C)cc(Oc2cccc(-c3c(C)nnn3C3CCN(C(=N)N)CC3)n2)c1 [drawing 224] | 3.6 ± 0.05
29 | Cc1cc(C)cc(Oc2cccc(-c3c(-c4ccc(C(F)(F)F)cc4)ncn3C3CCN(CCN)CC3)n2)c1 | 1.1 ± 0.01
30 | Cc1cc(C)cc(Oc2cc(-c3c(C)nnn3C3CCNCC3)ccn2)c1 | 97 ± 2.6
31 | Cc1cc(C)cc(Oc2nccc(-c3c(C4CC4)nnn3C3CCN(C(=N)N)CC3)n2)c1 | 61 ± 8.1
32 | Cc1cc(Oc2cccc(-c3c(C)nnn3C3CCNCC3)n2)cc(C2CCCC2)c1 [drawing 253] | 4.44
33 | CCCc1nnn(C2CCNCC2)c1-c1ccnc(Oc2cc(C)cc(C)c2)n1 | > 100
34 | Cc1nnn(C2CCNCC2)c1-c1cccc(Oc2cc(C3CCCCC3)cc(C3CCCCC3)c2)n1 [drawing 261] | 62.6
35 | Cc1cc(C)cc(Oc2ccnc(-c3c(C)nnn3C3CCN(C(=N)N)CC3)c2)c1 [drawing 227] | > 100
36 | CCCCc1cc(CCCC)cc(Oc2cccc(-c3c(C)nnn3C3CCNCC3)n2)c1 [drawing 259] | 8.61
37 | CCC(C)c1cc(C)cc(Oc2cccc(-c3c(C)nnn3C3CCNCC3)n2)c1 (centres unmarked) [drawing 252] | 3.21 ± 0.3
38 | Cc1cc(C)cc(Oc2cncc(-c3c(C)nnn3C3CCNCC3)c2)c1 | > 100
39 | Cc1cc(C)cc(Oc2cccc(-c3c(C)nnn3C3CCN(C(=N)N)CC3)c2)c1 [drawing 223] | 12 ± 1.1
40 | Cc1cc(C)cc(Nc2nccc(-c3c(-c4ccc(F)cc4)nnn3C3CCNCC3)n2)c1 | > 100

Same assay, conditions: mean and standard deviation of three independent trials, read-out: IC50 BRD4-D1

Row | SMILES | IC50 [µM]
41 | Cc1cc(C)cc(Oc2nccc(-c3c(C)nnn3C3CCN(C(=N)N)CC3)n2)c1 [drawing 179] | 9.7 ± 1.8
42 | Cc1cc(Oc2cccc(-c3c(C)nnn3C3CCNCC3)n2)cc(C2CCCC2)c1 [drawing 189] | 4.44
43 | Cc1cc(C)cc(Oc2cccc(-c3c(C)nnn3C3CCN(C(=N)N)CC3)n2)c1 [drawing 181] | 3.6 ± 0.05
44 | Cc1cc(C)cc(Oc2nccc(-c3c(C)nnn3C3CCNCC3)n2)c1 | 3.01
45 | Cc1cc(C)cc(Oc2cc(-c3c(C)nnn3C3CCN(C(=N)N)CC3)ccn2)c1 [drawing 182] | 97 ± 2.6
46 | CCC(C)c1cc(C)cc(Oc2cccc(-c3c(C)nnn3C3CCNCC3)n2)c1 (centres unmarked) [drawing 188] | 3.21 ± 0.3
47 | Cc1nnn(C2CCNCC2)c1-c1cccc(Oc2cc(C3CCCCC3)cc(C3CCCCC3)c2)n1 [drawing 197] | 62.6
48 | Cc1cc(C)cc(Oc2cccc(-c3c(C)nnn3C3CCN(C(=N)N)CC3)c2)c1 [drawing 180] | 12 ± 1.1
49 | CCCCc1cc(CCCC)cc(Oc2cccc(-c3c(C)nnn3C3CCNCC3)n2)c1 [drawing 195] | 8.61
50 | Cc1cc(C)cc(Oc2ccnc(-c3c(C)nnn3C3CCN(C(=N)N)CC3)c2)c1 [drawing 184] | > 100

These compounds were tested against T4, BRD4-D2 (Homo sapiens, UniProt O60885) (assay: Fluorescence anisotropy competition with Fl-JQ1). Settings: not given.
T4 construct: the second bromodomain of BRD4 (residues 333-460); host or cells: E. coli BL21 Star (DE3)
Format: binding

Row | SMILES | IC50 [µM]
51 | Cc1cc(Oc2cccc(-c3c(C)nnn3C3CCNCC3)n2)cc(C2CCCC2)c1 [drawing 189] | 7.35
52 | Cc1cc(C)cc(Oc2nccc(-c3c(C)nnn3C3CCNCC3)n2)c1 | 5.87
53 | CCC(C)c1cc(C)cc(Oc2cccc(-c3c(C)nnn3C3CCNCC3)n2)c1 (centres unmarked) [drawing 188] | 7.35
54 | Cc1cc(Oc2cccc(-c3c(C)nnn3C3CCNCC3)n2)cc(C(C)C)c1 [drawing 187] | 4.76
55 | Cc1nnn(C2CCNCC2)c1-c1cccc(Oc2cc(C(F)(F)F)cc(C(F)(F)F)c2)n1 [drawing 199] | 45.6
56 | CCCCc1cc(CCCC)cc(Oc2cccc(-c3c(C)nnn3C3CCNCC3)n2)c1 [drawing 195] | 27.7
